Where two headings read alike, the source gives them in different places.
Key:
human GLP-1R [1] = target: human GLP-1R (Homo sapiens, UniProt P43220, G168S); assay: CHO GLP-1R Clone H6—Assay 1: HTRF cAMP cell-based functional agonist assay (high GLP-1R density); details: for EC50: CHO GLP-1R Clone H6, cAMP HTRF, geometric mean; for Emax: read-out: Assay 1 Emax (%), CHO GLP-1R Clone H6; for Emax / Assay 1 Emax (%): relative to saturating concentration of full agonist GLP-1 (1 μM), arithmetic mean; for Assay 1 Emax (%): CHO GLP-1R Clone H6
Chain of human GLP-1R (Homo sapiens, UniProt P43220, G168S) (P43220 24-463 G168S limits assumed): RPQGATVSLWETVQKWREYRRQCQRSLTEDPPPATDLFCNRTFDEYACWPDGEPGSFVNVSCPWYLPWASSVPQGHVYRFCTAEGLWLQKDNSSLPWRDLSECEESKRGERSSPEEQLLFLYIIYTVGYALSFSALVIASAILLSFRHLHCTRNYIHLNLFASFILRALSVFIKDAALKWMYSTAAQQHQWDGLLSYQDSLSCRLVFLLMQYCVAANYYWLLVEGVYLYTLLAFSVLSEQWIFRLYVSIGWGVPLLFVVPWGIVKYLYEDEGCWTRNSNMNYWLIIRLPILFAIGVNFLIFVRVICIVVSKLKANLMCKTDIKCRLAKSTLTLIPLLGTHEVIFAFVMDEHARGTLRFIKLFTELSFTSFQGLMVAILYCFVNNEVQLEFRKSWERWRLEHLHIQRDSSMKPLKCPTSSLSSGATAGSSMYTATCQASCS

human GLP-1R [2] = target: human GLP-1R (Homo sapiens (Human), UniProt P43220, L260F); assay: CHO GLP-1R Clone C6—Assay 2: HTRF cAMP cell-based functional agonist assay (low GLP-1R density); details: for EC50: CHO GLP-1R Clone C6, cAMP HTRF, geometric mean; for Emax / Assay 2 Emax (%): CHO GLP-1R Clone C6, relative to saturating concentration of full agonist GLP-1 (1 μM), arithmetic mean; for Emax: read-out: Assay 2 Emax (%)
Chain of human GLP-1R (Homo sapiens (Human), UniProt P43220, L260F) (P43220 24-463 L260F): as the sequence (P43220 24-463 G168S limits assumed) above, with S145G, L237F counted along it
Method: GLP-1R-mediated agonist activity was determined with a cell-based functional assay utilizing an HTRF (Homogeneous Time-Resolved Fluorescence) cAMP detection kit (cAMP HI Range Assay Kit; Cis Bio cat #62AM6PEJ) that measures cAMP levels in the cell. The method is a competitive immunoassay between native cAMP produced by the cells and exogenous cAMP labeled with the dye d2. The tracer binding is visualized by a mAb anti-cAMP labeled with Cryptate. The specific signal (i.e. energy transfer) is inversely proportional to the concentration of cAMP in either a standard or an experimental sample.
The human GLP-1R coding sequence (NCBI Reference Sequence NP_002053.3, including naturally-occurring variant Leu260Phe) was subcloned into pcDNA5-FRT-TO and a clonal CHO cell line stably expressing a low receptor density was isolated using the Flp-In™ T-Rex™ System, as described by the manufacturer (ThermoFisher).
Cells were removed from cryopreservation, re-suspended in 40 mL of Dulbecco's Phosphate Buffered Saline (DPBS-Lonza Cat #17-512Q) and centrifuged at 800×g for 5 min at 22° C. The DPBS was aspirated, and the cell pellet was re-suspended in 10 mL of complete growth medium (DMEM:F12 1:1 Mixture with HEPES, L-Gln, 500 mL (DMEM/F12 Lonza Cat #12-719F), 10% heat inactivated fetal bovine serum (Gibco Cat #16140-071), 5 mL of 100× Pen-Strep (Gibco Cat #15140-122), 5 mL of 100× L-Glutamine (Gibco Cat #25030-081), 700 μg/mL Hygromycin (Invitrogen Cat #10687010) and 15 μg/mL Blasticidin (Gibco Cat #R21001). A 1 mL sample of the cell suspension in growth media was counted on a Becton Dickinson ViCell to determine cell viability and cell count per mL. The remaining cell suspension was then adjusted with growth media to deliver 1600 viable cells per well using a Matrix Combi Multidrop reagent dispenser, and the cells were dispensed into a white 384 well tissue culture treated assay plate (Corning 3570). The assay plate was then incubated for 48 h at 37° C. in a humidified environment (95% O2, 5% CO2)
Varying concentrations of each compound to be tested (in DMSO) were diluted in assay buffer [HBSS with Calcium/Magnesium (Lonza/BioWhittaker cat #10-527F)/0.1% BSA (Sigma Aldrich cat #A7409-1L)/20 mM HEPES (Lonza/BioWhittaker cat #17-737E)] containing 100 μM 3-isobutyl-1-methylxanthin (IBMX; Sigma cat #15879). The final DMSO concentration in the compound/assay buffer mixture is 1%.
After 48 h, the growth media was removed from the assay plate wells, and the cells were treated with 20 μL of the serially diluted compound in assay buffer for 30 min at 37° C. in a humidified environment (95% O2, 5% CO2). Following the 30 min incubation, 10 μL of labeled d2 cAMP and 10 μL of anti-cAMP antibody (both diluted 1:20 in cell lysis buffer; as described in the manufacturer's assay protocol) were added to each well of the assay plate. The plates were then incubated at room temperature and after 60 minutes, changes in the HTRF signal were read with an Envision 2104 multi-label plate reader using excitation of 330 nm and emissions of 615 and 665 nm. Raw data were converted to nM cAMP by interpolation from a cAMP standard curve (as described in the manufacturer's assay protocol) and the percent effect was determined relative to a saturating concentration of the full agonist GLP-1 (1 μM) included on each plate. EC50 determinations were made from agonist dose response curves analyzed with a curve fitting program using a 4-parameter logistic dose response equation.

Compound	EC50 (human GLP-1R [1]; read-out: Assay 1 EC50) [nM]	Emax (human GLP-1R [1]) [%]	EC50 (human GLP-1R [2]) [nM]	Emax (human GLP-1R [2]) [%]	Assay 1 Emax (%) (human GLP-1R [1])	Assay 2 Emax (%) (human GLP-1R [2])	EC50 (human GLP-1R [1]; Assay 1 EC50 (nM)) [nM]
C[C@H]1CN(c2cccc(OCc3ccc(Cl)cc3F)n2)CCN1Cc1nc2ccc(C(=O)O)nc2n1C[C@@H]1CCO1 [Example 10A-10, 2-{[(2S)-4-{6-[(4-chloro-2-fluorobenzyl)oxy]pyridin-2-yl}-2-methylpiperazin-1-yl]methyl}-3-[(2S)-oxetan-2-ylmethyl]-3H-imidazo[4,5-b]pyridine-5-carboxylic acid]	0.3	84	4.1	100			
O=C(O)c1ccc2nc(CN3CCC(c4cccc(OCc5ccc(Cl)cc5F)n4)CC3)n([C@@H]3CCOC3)c2c1 [Example 10A-60]	31	81	460	66			
Cn1cncc1Cn1c(CN2CCC(c3cccc(OCc4ccc(C#N)cc4F)n3)CC2)nc2ccc(C(=O)O)cc21 [Example 1A-16, 2-[(4-{6-[(4-cyano-2-fluorobenzyl)oxy]pyridin-2-yl}piperidin-1-yl)methyl]-1-[(1-methyl-1H-imidazol-5-yl)methyl]-1H-benzimidazole-6-carboxylic acid]	1.5	86	14	82			
O=C(O)c1ccc2nc(CN3CCC(c4cccc(OCc5ccc(Cl)cc5F)n4)CC3)n([C@H]3CCOC3)c2c1 [Example 10A-71]	190	62	5800	85			
[2H]C([2H])(Oc1cccc(C2CCN(Cc3nc4ccc(C(=O)O)cc4n3C[C@@H]3CCO3)CC2)n1)c1ccc(C#N)cc1F [Example 1A-09, 2-{[4-(6-{[(4-cyano-2-fluorophenyl)(methyl-d2)]oxy}pyridin-2-yl)piperidin-1-yl]methyl}-1-[(2S)-oxetan-2-ylmethyl]-1H-benzimidazole-6-carboxylic acid]		92		120			
O=C(O)c1ccc2nc(CN3CCC(c4cccc(OCc5ccc(Cl)cc5F)n4)CC3)n(Cc3ncco3)c2n1 [Example 2A-18, 2-[(4-{6-[(4-chloro-2-fluorobenzyl)oxy]pyridin-2-yl}piperidin-1-yl)methyl]-3-(1,3-oxazol-2-ylmethyl)-3H-imidazo[4,5-b]pyridine-5-carboxylic acid]	6	80	78	88			
O=C(O)c1ccc2nc(CN3CCC(c4cccc(OCc5ccc(Cl)cc5F)n4)CC3)n(C[C@@H]3CCCO3)c2c1 [Example 10A-73, 2-[(4-{6-[(4-chloro-2-fluorobenzyl)oxy]pyridin-2-yl}piperidin-1-yl)methyl]-1-[(2S)-tetrahydrofuran-2-ylmethyl]-1H-benzimidazole-6-carboxylic acid]	8.6	78	88	82			
Cn1cncc1Cn1c(CN2CCN(c3cccc(OCc4ccc(Cl)cc4F)n3)CC2)nc2ccc(C(=O)O)cc21 [Example 10A-36, 2-[(4-{6-[(4-chloro-2-fluorobenzyl)oxy]pyridin-2-yl}piperazin-1-yl)methyl]-1-[(1-methyl-1H-imidazol-5-yl)methyl]-1H-benzimidazole-6-carboxylic acid]	0.33	82	13	110			
COCCn1c(CN2CCN(c3cccc(OCc4ccc(Cl)cc4F)n3)C[C@@H]2CO)nc2ccc(C(=O)O)cc21 [Example 12A-09]	21		540		79	80	
Cc1nnc(Cn2c(CN3CCC(c4cccc(OCc5ccc(Cl)cc5F)n4)CC3)nc3ccc(C(=O)O)cc32)n1C [Example 10A-20]	> 15000	98	> 20000				
O=C(O)c1ccc2nc(CN3CCC(c4cccc(OCc5ccc(Cl)cc5F)n4)CC3)n(C[C@@H]3CCO3)c2c1 [Example 3A-01, 2-[(4-{6-[(4-chloro-2-fluorobenzyl)oxy]pyridin-2-yl}piperidin-1-yl)methyl]-1-[(2S)-oxetan-2-ylmethyl]-1H-benzimidazole-6-carboxylic acid]	0.94	83	12	98			
COCCn1c(CN2CC[C@@H](c3cccc(OCc4ccc(Cl)cc4F)n3)[C@H](F)C2)nc2ccc(C(=O)O)cc21 (racemic) [Example 1A-22, rac 2-{[(3S,4S)-4-{6-[(4-chloro-2-fluorobenzyl)oxy]pyridin-2-yl}-3-fluoropiperidin-1-yl]methyl}-1-(2-methoxyethyl)-1H-benzimidazole-6-carboxylic acid]	36		400		78	86	
CO[C@H]1CCC[C@H]1Cn1c(CN2CCC(c3cccc(OCc4ccc(Cl)cc4F)n3)CC2)nc2ccc(C(=O)O)cc21 (racemic) [Example 1A-29, rac-2-[(4-{6-[(4-chloro-2-fluorobenzyl)oxy]pyridin-2-yl}piperidin-1-yl)methyl]-1-{[(1S,2S)-2-methoxycyclopentyl]methyl}-1H-benzimidazole-6-carboxylic acid]		88	5600	86			260
Cn1c(CN2CCC(c3cccc(OCc4ccc(C#N)cc4)n3)CC2)nc2ccc(C(=O)O)cc21 [Example 9A-15, 2-[(4-{6-[(4-cyanobenzyl)oxy]pyridin-2-yl}piperidin-1-yl)methyl]-1-methyl-1H-benzimidazole-6-carboxylic acid]	180	78	3500	90			
COCCn1c(CN2CCN(c3cccc(OCc4ccc(Cl)cc4F)n3)CC2C(F)(F)F)nc2ccc(C(=O)O)cc21 (single isomer, unassigned; enantiomer 2) [Example 12A-02, 2-((4-(6-((4-Chloro-2-fluorobenzyl)oxy)pyridin-2-yl)-2-(trifluoromethyl)piperazin-1-yl)methyl)-1-(2-methoxyethyl)-1H-benzo[d]imidazole-6-carboxylic acid, enantiomer 2]		71	1600	82			36
O=C(O)c1ccc2nc(CN3CCC(c4cccc(OCc5ccc(Cl)cc5F)n4)CC3)n(Cc3cc[nH]n3)c2c1 [Example 11A-24, 2-[(4-{6-[(4-chloro-2-fluorobenzyl)oxy]pyridin-2-yl}piperidin-1-yl)methyl]-1-(1H-pyrazol-3-ylmethyl)-1H-benzimidazole-6-carboxylic acid]	28	80	450	89			
CCn1cncc1Cn1c(CN2CCN(c3cccc(OCc4ccc(C#N)cc4F)n3)CC2)nc2ccc(C(=O)O)cc21 [Example 10A-35, 2-[(4-{6-[(4-cyano-2-fluorobenzyl)oxy]pyridin-2-yl}piperazin-1-yl)methyl]-1-[(1-ethyl-1H-imidazol-5-yl)methyl]-1H-benzimidazole-6-carboxylic acid]	0.3	93	3.8	93			
O=C(O)c1ccc2nc(CN3CCN(c4cccc(OCc5ccc(Cl)cc5F)n4)CC3)n(C[C@H]3CCO3)c2c1 [Example 10A-48]	8.6	64	140	76			
CCn1cncc1Cn1c(CN2CCC(c3cccc(OCc4ccc(C#N)cc4F)n3)CC2)nc2ccc(C(=O)O)cc21 [Example 10A-66, 2-[(4-{6-[(4-cyano-2-fluorobenzyl)oxy]pyridin-2-yl}piperidin-1-yl)methyl]-1-[(1-ethyl-1H-imidazol-5-yl)methyl]-1H-benzimidazole-6-carboxylic acid]	0.39	84	3.4	100			
Cn1cncc1Cn1c(CN2CCC(c3cccc(OCc4ccc(Cl)cc4F)n3)CC2)nc2ccc(C(=O)O)cc21 [Example 11A-70, 2-[(4-{6-[(4-chloro-2-fluorobenzyl)oxy]pyridin-2-yl}piperidin-1-yl)methyl]-1-[(1-methyl-1H-imidazol-5-yl)methyl]-1H-benzimidazole-6-carboxylic acid]	0.7	86	10	89			

— US10208019B2, “GLP-1 receptor agonists and uses thereof” (Pfizer Inc., priority 2016, dated 2019)
